Laboratory results reported in patent US20230346940A1, “Method And System For Identifying And Validating Shared Candidate Antigens And Shared Antigen-Specific T Lymphocyte Pairs” (National University of Singapore, priority 2019, published 2023).
“Also recorded” adds a separate entry of the source.

Legend:
CD8+ T cells [1] = experiment: HLA-A24 tetramer CyTOF screen of CRC patient PBMC; format: cell-based, human; settings: 10 HLA-A24 positive CRC patients, validation cohort
Protocol: To determine whether CRC patients have CD8+ T cells that target any of the 75 SVPs that bind to HLA-A24, a CyTOF screen was conducted on a new cohort of 10 HLA-A24 positive CRC patients (validation cohort) using MHC tetramer staining of PBMC (procedure for performing this screen is similar to that described in Example 13). In total, antigen-specific CD8+ T cells that target eight splice variant peptides were identified from this screen.

CD8+ T cells [2] = experiment: HLA-A11 tetramer CyTOF screen of CRC patient PBMC; format: cell-based, human; settings: 8 HLA-A11 positive CRC patients; for antigen specific CD8+ T cells detected in CRC patients: validation cohort
Protocol: To determine if CRC patients have CD8+ T cells that target any of the 102 peptides that were identified in Example 12, a CyTOF screen was conducted on a new cohort of 8 CRC patients (validation cohort) using MHC tetramer staining of PBMC (FIG. 19(a)). These CRC patients are all positive for HLA-A11.
The 102 peptides were chemically synthesized by Mimotopes. These peptides were loaded onto biotinylated HLA-A11 by UV-mediated exchange. Streptavidin, labelled with three heavy metal barcodes, was bound to the peptide-loaded HLA-A11 to make the HLA-tetramers used for staining PBMCs.
To increase the sensitivity of detecting antigen-specific T cells, two different sets of heavy metal barcodes were used for each peptide. PBMCs from each patient were stained with these two sets of peptide-loaded HLA tetramers. Frequency co-concordance was used as an indication of specific staining for rare events.

CD8+ T cells [3] = experiment: HLA-A11 tetramer CyTOF screen of gastric cancer patient PBMCs; format: cell-based, human; settings: for CD8+ T-cells capable of recognizing the peptide antigen (HLA-A11 tetramer staining): PBMCs of 7 gastric cancer patients, validation cohort, CyTOF
Description: In one specific example, as shown schematically in FIG. 7, the method 150 may include HLA tetramer staining of peripheral blood, including preparing HLA tetramers by bacterially expressing and purifying biotin tagged HLA loaded with a UV cleavable peptide. Individual shared candidate antigens are then loaded onto the HLA molecule by UV mediated peptide exchange. Addition of heavy metal barcoded streptavidin causes formation of a tetramer comprising a shared candidate antigen. Peripheral blood (e.g. PBMC) from one or more cohort of patients having the medical condition is stained with a pool of the HLA tetramer and analysis is then done using CyTOF.
(§1) To determine if GC patients have CD8+ T cells that target any of the 77 peptides that were identified in Example 2, a CyTOF screen was conducted on a new cohort of GC patients (the Validation cohort) using MHC tetramer staining of peripheral blood. The CyTOF screen was performed as described in Leong and Newell (2015). Chemically synthesized peptides were supplied by Mimotopes and were stored as dry powder at −20° C. These peptides were loaded onto biotinylated HLA-A11 by UV-mediated exchange. Streptavidin labelled with three heavy metal barcodes was bound to the peptide loaded HLA-A11 to make the HLA-tetramers used for staining peripheral blood (FIG. 7). HLA-A11 tetramer staining of 7 gastric cancer patients derived PBMCs was performed (FIG. 12(a)) and control peptides against the Epstein-Bar Virus (EBV) viral antigen were incorporated as positive control (FIG. 13). […] This antigen was generated from an alternative splicing event of the MARK3 gene identified in Example 2 (FIG. 11(b)). The sequence of the MARK3 splice variant antigen used in the CyTOF studies was RNMSFRIK (SEQ ID NO: 1) and the EBV peptide sequence was […] (SEQ ID NO: 2). […] Patient SC020 was also positive for T Cells that reacted with the positive control peptide from the EBV (FIG. 13). The presence of the MARK3 splice variant antigen in a fresh PBMC isolate from gastric cancer patient, SC020, was further confirmed by a FACS analysis using fluorescently labelled MARK3-A11-RNMSFRIK peptide tetramers (FIG. 12(b)).

CD8 T cells = experiment: FACS analysis with fluorescently labelled A11 MHC tetramers; format: cell-based, human; settings: fresh PBMC isolate from gastric cancer patient SC020
Protocol: as §1, with “The presence of the MARK3 splice variant antigen in a fresh PBMC isolate from gastric cancer patient, SC020, was further confirmed by a FACS analysis using fluorescently labelled MARK3-A11-RNMSFRIK peptide tetramers (FIG. 12(b)).” left out

CTLs = experiment: ELISPOT assay for IFN-γ in PBMCs from healthy donors; format: cell-based, human; settings: PBMCs from healthy donors with or without stimulation with peptide
Protocol: T cells having a shared splice variant antigen, such as MARK3, can be expanded ex-vivo. In the case of MARK3, PBMC were obtained from healthy donors. An aliquot of these PBMCs was used to isolate monocytes (Human Monocyte Isolation Kit, STEMCELL Technologies) for subsequent differentiation to dendritic cells (ImmunoCult Dendritic Cell Culture kit, STEMCELL Technologies). These monocyte derived dendritic cells were treated with mitomycin C (30 μg/ml) to prevent outgrowth of these cells. These dendritic cells were then loaded with MARK3 peptide and used as antigen-presenting cells. CD8+ T cells were isolated (EasySep Human CD8+ T cell isolation kit, STEMCELL Technologies) from another aliquot of PBMCs and these cells were co-cultured with the antigen-presenting cells to stimulate the expansion of MARK3 specific T cells. To generate sufficient number of MARK3-specific T cells for functional characterisation or TCR identification, MARK3 peptide loaded monocyte derived dendritic cells or artificial antigen presenting cells may be used to further stimulate expansion of MARK3 specific T cells. Expansion of MARK3 specific T cells using the above method can be used for the treatment of patients.
Characterization of the MARK3 antigen and CD8+T lymphocytes was carried out by first determining whether MARK3 specific CTLs could be expanded in healthy donor PBMCs (as shown in Example 6). […]

CD8+ T cells [4] = experiment: moDC/CD8+ T-cell co-culture of healthy donors, tetramer FACS (immunogenicity); format: cell-based, human; settings: HLA-A11 positive healthy donors, SVP 2.5 μM loaded moDC, 10 days co-culture, PE/APC tetramers
Description: Antigen specific T-cells for LRR1, GRINA, and ZNF670 were initially identified in the SVP/HLA-A11 tetramer CyTOF screen (as described in Example 13). The immunogenicity of these targets was further assessed by testing whether antigen specific T-cells could be expanded in the PBMC of healthy donors who were HLA-A11 positive. PBMC were obtained from healthy donors and an aliquot was used to isolate monocytes (CD14 positive selection kit, STEMCELL Technologies) for subsequent differentiation to dendritic cells. Briefly, differentiation of monocytes to dendritic cells was carried out by culturing the isolated CD14 cells with IL4 (10 ng/ml) and GM-CSF (800 IU/ml) for 3 days and maturating the dendritic cells with IL4 (10 ng/ml), GM-CSF (800 IU/ml), LPS (10 ng/ml), IFN-γ (100 IU/ml), and the LRR1, GRINA and ZNF670 HLA-A11 SVP (2.5 μM) overnight. These monocyte derived dendritic cells were then cultured with CD8+ T cells which were isolated from another aliquot of PBMCs from the same donor using EasySep CD8 T cell isolation kit, STEMCELL Technologies. After 10 days of co-culture, expansion of antigen-specific T cells was detected by staining with tetramers (labelled with PE and APC) that have been loaded with the LRR1, GRINA and ZNF670 HLA-A11 SVP. […] Antigen-specific T-cells for these SVPs are not observed in CD8+ T cells in unstimulated PBMCs from healthy donors, whereas SVP-specific T-cells can be observed when they have been co-cultured with monocyte-derived dendritic cells that have been loaded with the SVP. In summary, antigen-specific CD8 T cells for LRR1, GRINA and ZNF670 were able to be generated in healthy donors, showing that these SVPs are immunogenic.

[5] = target: T1, MARK3 splice variant (inclusion of exon 24; MARK3 isoforms 1 and 3) peptide on HLA-A*11 (human); experiment: multimer staining
T1 peptide: RNMSFRFIK

[6] = listed as MARK3 splice variant antigen

## KWPPATETL (MZF1 spliced variant antigen)
CD8+ T cells [1]
  antigen specific CD8+ T cells detected in CRC patients: detected

## LTMAVKAEK (ZC3HAV splice variant antigen) [ZC3HAV1]
CD8+ T cells [2]
  antigen specific CD8+ T cells detected in CRC patients: could be identified in one or more CRC patients

## RNMSFRFIK (MARK3 splice variant) [MARK3 peptide]
CD8+ T cells [3]; CyTOF screen, 7 GC patients
  positive hit out of 7 samples: 14%
CD8+ T cells [3]
  CD8+ T-cells capable of recognizing the peptide antigen (HLA-A11 tetramer staining): one out of 7
CD8+ T cells [3]; [6]
  CD8+ T-cells capable of recognizing the peptide antigen (HLA-A11 tetramer staining): one of the patients, SC020, was found to be positive
CD8+ T cells [3]; listed as MARK3 splice variant peptide
  CD8+ T-cells capable of recognizing the peptide antigen (HLA-A11 tetramer staining): has CTLs that react
CD8 T cells
  presence of antigen-specific CD8 T cells confirmed by FACS: confirmed
CTLs
  IFN-γ secreting CTLs: IFN-γ secreting CTLs are only observed when PBMCs were stimulated with MARK3 peptide
CTLs; [6]
  IFN-γ secreting CTLs: antigenic

## SCVSPSSELK (ZNF670 splice variant antigen)
CD8+ T cells [2]
  number of CRC patients in which detected: two
  antigen specific CD8+ T cells detected in CRC patients: could be identified in one or more CRC patients
CD8+ T cells [4]
  expansion of antigen-specific CD8+ T cells (immunogenicity): observed only after stimulation; also recorded: immunogenic

## SIRQAFIRK (GRINA splice variant antigen)
CD8+ T cells [2]
  antigen specific CD8+ T cells detected in CRC patients: could be identified in one or more CRC patients
CD8+ T cells [4]
  expansion of antigen-specific CD8+ T cells (immunogenicity): observed only after stimulation; also recorded: immunogenic

## SLPRFGYRK (LRR1 splice variant antigen)
CD8+ T cells [2]
  antigen specific CD8+ T cells detected in CRC patients: could be identified in one or more CRC patients
CD8+ T cells [2]; listed as SEQ ID NO: 36
  antigen specific CD8+ T cells detected in CRC patients: detected
CD8+ T cells [2]; listed as SLPRFGYRK
  antigen specific CD8+ T cells detected in CRC patients: detected in CRC patients
CD8+ T cells [4]
  expansion of antigen-specific CD8+ T cells (immunogenicity): observed only after stimulation; also recorded: immunogenic

## SQLDFVKTRK (PARD3 splice variant antigen)
CD8+ T cells [2]
  antigen specific CD8+ T cells detected in CRC patients: could be identified in one or more CRC patients

## SSCSSCPLSK (EBV peptide sequence) [control peptide against the Epstein-Bar Virus (EBV) viral antigen, positive control, reference compound]
CD8+ T cells [3]
  CD8+ T-cells capable of recognizing the peptide antigen (HLA-A11 tetramer staining): positive

## SSFYALEEK (NBPF9 splice variant antigen)
CD8+ T cells [2]
  number of CRC patients in which detected: two
  antigen specific CD8+ T cells detected in CRC patients: could be identified in one or more CRC patients

## SYHSIPSLPRF (LRR1 splice variant antigen)
CD8+ T cells [1]
  antigen specific CD8+ T cells detected in CRC patients: detected in CRC patients
CD8+ T cells [1]; listed as SEQ ID NO: 51
  antigen specific CD8+ T cells detected in CRC patients: detected

## VIVSASRTK (YAF2 splice variant antigen)
CD8+ T cells [2]
  antigen specific CD8+ T cells detected in CRC patients: could be identified in one or more CRC patients

## VTSPSRRSK (CAMKK1 splice variant antigen)
CD8+ T cells [2]
  antigen specific CD8+ T cells detected in CRC patients: could be identified in one or more CRC patients

B1: MARK3-specific TCR (MARK3 TRA chain and MARK3 TRB chain) (TCR, V domains shown)
Valpha: SQKIEQNSEALNIQEGKTATLTCNYTNYSPAYLQWYRQDPGRGPVFLLLIRENEKEKRKERLKVTFDTTLKQSLFHITASQPADSATYLCAPYTGGFKTIFGAGTRLFVKA
Vbeta: DTGVSQNPRHKITKRGQNVTFRCDPISEHNRLYWYRQTLGQGPEFLTYFQNEAQLEKSRLLSDRFSAERPKGSFSTLEIQRTEQGDSAMYLCASSSPRVGYGYTFGSGTRLTVV
[5]
  binding result: recognises
